Tests used:
TGR5 = TGR5 activation in CHO-TGR5-CRE-Luc cells; format: cell-based; settings: 6 h
Experimental: The CHO-TGR5-CRE-Luc cells stably transfected with the pTGR5 and CRE-Luc. […] As a positive control the cells were treated with 10 μM of LCA (lithocholic acid). Luciferase activity in the cell lysates was measured as indicated above and the EC50 calculated (Table III).

HIF-2α = HIF-2α stabilization in hIPCs (Western blot); format: cell-based, human; settings: increasing concentrations, 3 h
Experimental: Stimulation of human Islet-Derived Precursor Cells (hIPCs) with increasing concentrations of compound VII or with DFX (150 μM) during 3 h, and the expression of HIF-2α, PHD3 and β-actin determined by Western blots.
Since PDH2 and PDH3 also regulate the expression of HIF-2α, the effect of compound VII on HIF-2α stabilization in Human Islet-Derived Precursor Cells (hIPCs) obtained from Innoprot SL (Spain) (reference p10472) was investigated. hIPCs were stimulated with the increasing concentrations of compound VII or with DFX (150 μM) during 3 h. After that, proteins isolation and western blots were performed as in FIG. 3. The antibodies against HIF-2α (ab8365) and PHD3 (ab30782) were from Abcam (Cambrigde, UK), and the antibody anti-β-actin (AC-74) was purchased from Sigma-Aldrich (Saint Louis, Mo., USA). (FIG. 5).

HUVEC = experiment: Endothelial cell tube formation (angiogenesis) in HUVEC co-cultured with fibroblasts; format: cell-based, human; settings: 1 μM, 7 days
Experimental: Measurements of endothelial cell tube formation as a model of angiogenesis in green fluorescent Human endothelial vascular cells (HUVEC) co-cultured with primary fibroblasts and stimulated separately with compound VII (1 μM), rhFGF (10 ng/ml) and VEGFA (10 ng/ml) for 7 days. Values represent the mean±SEM (n=3).
To test the functional consequences of compound VII stimulation in a physiological model, endothelial cell tube formation was measured as a model of angiogenesis. CellPlayer™ GFP AngioKit-96 (Essen BioScience Inc., Welwyn Garden City, UK) was supplied as growing co-cultures of human matrix (normal human dermal fibroblast, NHDF) and endothelial cells (HUVEC) at the earliest stages of tubule formation. CellPlayer 96-well kinetic angiogenesis assay was performed according to the manufacturer's protocol. Briefly, lentivirally infected green fluorescent protein (GFP)-HUVECs were cocultured with normal human dermal fibroblasts in a 96-well microplate. The plate was placed in IncuCyte, and images were automatically acquired in both phase and fluorescence every 6 hours for 7 days. […] Tube formation over the 7-day assay was quantified using the Essen BioScience Angiogenesis Analysis Module. […] Briefly, the fluorescent images were analyzed to generate a segmentation mask closely resembling the in vitro network. […]

Erythropoietin (EPO) = experiment: Plasma erythropoietin (EPO) levels in mice (ELISA); format: in vivo, mouse; settings: C57BL/6 male mice, i.p., 4 hours after treatment; compound VII 30 and 60 mg/kg, Betulinic acid 60 mg/kg
Experimental: EPO in plasma measured using a mouse EPO ELISA kit in C57BL/6 male mice administered with compound VII (30 mg/kg or 60 mg/kg) or betulinic acid (BA) (60 mg/kg) intraperitoneally. […] Data are expressed as mean±SEM (n=3).
Erythropoietin (EPO) is one of the earliest described and most sensitive HIF target genes; being positively regulated at the transcription level. Here, the ability of compound VII to regulated EPO levels in vivo was examined. Sixteen-week-old C57BL/6 male mice were treated intraperitoneally (i.p.) with Betulinic Acid (60 mg/kg) or compound VII (30 mg/kg or 60 mg/kg). Blood samples were taken under general anaesthesia 4 hours after treatment and the circulating levels of EPO in plasma were quantified using a mouse EPO ELISA kit (R&D Systems) according to manufacturer's instructions. EPO values represent the mean±SEM (n=3).

3NP-lesioned mice = experiment: 3-NP induced Huntington's disease model in mice; format: in vivo, mouse
Experimental: Striatal neurodegeneration was induced in 16-week-old C57BL/6 male mice (Harlan Ibérica, Barcelona, Spain) by six intraperitoneal (i.p.) injections of 3-nitropropionic acid (3NP) (30 mg/kg; one injection each every 12 h prepared in PBS). 3NP-treated animals and the non-lesioned control group (injected with PBS) were used for pharmacological studies with Betulinic acid (30 mg/Kg) and compound VII (30 mg/Kg). Treatments consisted of 5 i.p. injections every 24 h with […] the test compounds or vehicle (10% DMSO plus 6.2% Tween 20 in saline buffer), with the first injection 24 h prior the first 3NP injection and the rest of doses 30 min before the injections of 3NP. Mice were subjected to behavioral tests for determining their neurological status. General locomotor activity, the hindlimb clasping and dystonia, and the truncal dystonia were evaluated. All behavioral tests were conducted prior to drug injections to avoid acute effects of the compounds under investigation. […] were euthanized 12 h after the last injection of 3NP. Once euthanized, animals were dissected and their brains were rapidly removed. The right hemisphere was used to dissect the striatum, which was quickly frozen in RNAlater (Sigma-Aldrich, Germany) to analyzed inflammatory markers were by Real Time PCR. The left hemisphere was fixed in fresh 4% paraformaldehyde (in 0.1M phosphate buffered-saline) for 48 hours at 4° C. and embedded in paraffin wax for histological analysis.
For this test, intoxicated mice with 3-Nitropropionic acid (3-NP) were used for determining microglia activation and astrogliosis including a Control with non-intoxicated mice (3NP, 3NP+BA and 3NP+Compound VII). Iba-1 and glial fibrillary acidic protein (GFAP) expression were determined by immunostaining of brain sections through the different group of mice. Quantification of the different markers was performed with Image J software.
Total RNA was isolated from striata (3NP model) using RNeasy Lipid Tissue Mini Kit (Qiagen, GmbH). The total amount of RNA extracted was quantitated by spectrometry at 260 nm and its purity from the ratio between the absorbance values at 260 and 280 nm. Genomic DNA was removed to eliminate DNA contamination. Single-stranded complementary DNA was synthesized from up to 1 μg of total RNA (pool from at least 3 animals per group) using iScript™ cDNA Synthesis Kit (Bio-Rad, Hercules, Calif., USA). The reaction mixture was kept frozen at −20° C. until enzymatic amplification. The iQ™ SYBR Green Supermix (Bio-Rad) was used to quantify mRNA levels for COX-2, IL-6, IL-1β, and iNOS. […] Expression levels were calculated using the 2^−ΔΔCt method.

C=C(C)[C@@H]1CC[C@]2(C(=O)NO)CC[C@]3(C)[C@H](CC[C@@H]4[C@@]5(C)CC[C@H](O)C(C)(C)[C@@H]5CC[C@]43C)[C@@H]12 [Compound VII, (3β) 3-Hydroxy-N-hydroxy-lup-20(29)-en-28-amide]
EC50 (TGR5): > 50 µM | HIF-2α expression (HIF-2α): stabilized HIF-2α expression | expression of PHD3 (HIF-2α): without affecting the expression of PHD3 | network length in HUVEC cells (HUVEC): increased significantly the network length | circulating EPO plasma levels (Erythropoietin (EPO)): strongly increased | mRNA expression for COX-2, IL-1β, IL-6 and iNOS in striatum (3NP-lesioned mice; 30 mg/kg, compared with 3NP+Vehicle): down regulated | clinical symptoms (behavioral score) induced by 3-NP intoxication (3NP-lesioned mice; i.p., 30 mg/kg): clearly alleviated the clinical symptoms | reduction in Nissl-stained cells (neuronal death) in striatum caused by 3NP (3NP-lesioned mice; i.p., 30 mg/kg): clearly prevented | 3NP-induced microgliosis (Iba1) and astrogliosis (GFAP) (3NP-lesioned mice; i.p., immunohistochemistry): reduced 3NP-induced microgliosis and astrogliosis
